{"source": "patent US5561131A", "about": "“Defaunation method” (Mallinckrodt Veterinary, Inc., priority 1991, dated 1996)", "key": {"protozoa [1]": {"system": "protozoa", "experiment": "Cattle defaunation", "format": "in vivo", "conditions": "for Elimination of protozoa from cattle (in words): 332 mg/kg", "experimental": "Four cattle each were defaunated using either compounds No. 27 or No. 37 at a dose rate of 332 mg/kg. The compounds were administered by firstly mixing with 100 mL of ethanol and then adding 400 mL of centrifuged rumen liquor. This mixture was then administered into the rumen of the animal using a stomach tube."}, "Sheep test: feed intake": {"experiment": "Sheep test: feed intake", "format": "in vivo", "experimental": "(§1) In this trial the effect of defaunation by compounds 27, 30 and 37 (see Table 1) after 1 and 3 weeks were examined using penned sheep.\n(§2) The compounds were each administered to two sheep as a single dose at 167 mg/kg body weight. Compositions containing each compound were prepared according to the method of Example 1. Sheep were penned and fed 1000 g/day of a chaffed oaten hay and Lucerne mixture (90/10). Protozoal and bacterial viabilities were monitored along with the feed intake of the sheep according to the methods taught in Examples 2, 3 and 7."}, "rumen ciliate protozoa": {"system": "rumen ciliate protozoa", "experiment": "Protozoal reduction in sheep", "format": "in vivo", "set-up": "concentration or dose not given beside the values", "conditions": "one week after dosing, relative to predosing numbers", "experimental": "Defaunation compositions were prepared according to the method of Example 1.\nPrior to dosing of the compound, a sample of rumen liquor (200 ml) was withdrawn to establish basal numbers of protozoa.\nThe sample was collected using a stomach tube, inserted into the rumen via a rumen cannula (fistulated animals) or per esophagus (intact animals). After straining the sample was well mixed using a magnetic stirrer and a 0.5 ml sample was withdrawn and added to 49.5 ml of a crystal violet stain. Protozoa were counted using a microscope and a Hawksley counting chamber.\nOne week after administering the compound, another rumen liquor sample was collected (as described above) and examined for the presence of protozoa. Where rumen ciliate protozoa were undetectable, a reduction or inhibition value of 100% was recorded. In general, most compounds expressed a strong inhibitory effect on protozoal populations."}, "protozoa [2]": {"system": "protozoa", "experiment": "Pilot field testing: elimination of protozoal population in sheep", "format": "in vivo", "conditions": "week 3, 167 mg/kg"}, "protozoa [3]": {"system": "protozoa", "experiment": "Sheep test: protozoal numbers", "format": "in vivo", "experimental": "as §1, §2"}, "[4]": {"experiment": "Wool growth in defaunated sheep", "format": "in vivo", "conditions": "167 mg/kg; for Response To Defaun: clean wool growth defaunated vs refaunated", "experimental": "Seven sheep each were defaunated using a dose rate of 167 mg/kg. Compounds were administered by first mixing with 20 ml of ethanol and then with 200 ml of centrifuged rumen liquor. This solution was then administered via a flexible stomach tube directly into the rumen. The sheep were fed with a ration of 90% oaten chaff and 10% Lucerne chaff at a rate of 1000 g per day. The sheep were maintained in a defaunated state by their isolation from faunated sheep to prevent the possibility of refaunation. The sheep were allowed to adjust for 3 weeks after administering the compound before any wool growth measurements were taken.\nAt the start of the wool growth measurement period, a 10 cm square area of wool was removed from both sides of the sheep. After four weeks the same area was reclipped and the wool retained for scouring at the end of the trial.\nThe sheep then had protozoa introduced back into their rumen and were allowed to adjust for three weeks. Similarly, during the second four week period, the wool was clipped from the same patch area. The wool harvested during the two four week trial periods was then scoured of wool wax and extraneous material and weighed."}, "rumen protozoa": {"system": "rumen protozoa", "experiment": "Defaunation using single or 2 or 3 repeated doses in sheep", "format": "in vivo", "conditions": "individual sheep", "experimental": "(§3) Sheep were fed a diet of 900 g oaten chaff daily, except that food and water were withheld for 19 hours before and 24 hours after dosing. Each dose was prepared by mixing compound 37 with 20 ml of ethanol followed by 200 ml of centrifuged rumen liquor, to give a dose of 167 mg/kg body weight, administered by rumen tube. Rumen protozoa were counted weekly following the final treatment.\nTable 9: The effect of administering compound 37 (from table 1) on mean protozoal numbers in rumen in sheep."}, "[5]": {"conditions": "The Pesticide Manual, 9th Ed. 1991; cited from earlier work"}, "protozoa [6]": {"system": "protozoa", "experiment": "Reliability of defaunation using 2 repeated doses in sheep", "format": "in vivo", "conditions": "Group 1, 2 doses, 4 weeks", "experimental": "as §3\nSixty (60) Sheep, in three successive trials of 20 each, were treated with 2 doses of compound 37, one week apart, according to the method of Example 14. Protozoa were counted at 4 or 5 weeks after the second treatment."}, "[7]": {"experiment": "Growth and carcass measurements in lambs", "format": "in vivo, lambs (sheep)", "conditions": "332 mg/kg", "experimental": "(§4) Three cross-bred lambs were defaunated with compound 37 at dose rate of 332 mg per kg liveweight. The lambs were allowed four weeks to adapt to defaunation before commencing the trial. The lambs were grazed at pasture. Then control (faunated) cohorts of the defaunated group, which were matched for liveweight, were grazed in the same paddock, but separated from the defaunated lambs by a double-fence (4 meter separation). This was to prevent the faunated lambs contaminating the defaunated lambs.\nAt 16 weeks post-defaunation both groups of the lambs were sacrificed and measurements taken.\nAlso shown is the cross-sectional area of the longissimus dorsi (loin eye muscle) measured between the 12th and 13th rib."}, "[8]": {"experiment": "Liveweight gain of growing lambs", "format": "in vivo, lambs (sheep)", "conditions": "332 mg/kg", "experimental": "as §4, with “Ten” for “Then”, “lambs. Both groups of lambs were weighed on four occasions at three weekly intervals. Protozoa were also monitored at the same time.” for “lambs.”"}}, "note": "Where “and” joins values, the source holds several entries; their conditions need not be identical. Equal values may be shown once.", "data": [{"smiles": "Cc1ccc(Nc2nc(Cl)nc(Cl)n2)cc1Cl", "note": "[Compound 27, 2,4 dichloro-6-(3 chloro-4-methylanilino)-s-triazine]", "values": [{"measurement": "Elimination of protozoa from cattle (in words)", "setting": "protozoa [1]", "value": "able to eliminate protozoa from cattle"}, {"measurement": "Mean protozoal number", "setting": "protozoa [1]; week 0, 332 mg/kg", "value": 220, "unit": "per mL × 10^3"}, {"measurement": "Mean protozoal number", "setting": "protozoa [1]; week 4, 332 mg/kg", "value": 0, "unit": "per mL × 10^3"}, {"measurement": "Feed Intake", "setting": "Sheep test: feed intake; 1 week after 167 mg/kg", "value": 1000, "unit": "g/day"}, {"measurement": "Feed Intake", "setting": "Sheep test: feed intake; 3 weeks after 167 mg/kg", "value": 1000, "unit": "g/day"}, {"measurement": "Feed Intake", "setting": "Sheep test: feed intake; pre-dose (baseline)", "value": 966, "unit": "g/day"}, {"measurement": "Protozoal Reduction", "setting": "rumen ciliate protozoa", "value": 100, "unit": "%"}, {"measurement": "Protozoal number", "setting": "protozoa [2]", "value": 0, "unit": "per mL × 10^3"}, {"measurement": "Protozoal Nos.", "setting": "protozoa [3]; 1 week after 167 mg/kg", "value": 0, "unit": "per mL × 10^3"}, {"measurement": "Protozoal Nos.", "setting": "protozoa [3]; 3 weeks after 167 mg/kg", "value": 0, "unit": "per mL × 10^3"}, {"measurement": "Protozoal Nos.", "setting": "protozoa [3]; pre-dose (baseline)", "value": 950, "unit": "per mL × 10^3"}, {"measurement": "Response To Defaun", "setting": "[4]; sheep", "value": 10.3}, {"measurement": "Clean Wool Growth", "setting": "[4]; sheep, defaunated period, 4 weeks, per midside patch", "value": 1.753, "unit": "g"}]}, {"smiles": "Clc1nc(Cl)nc(Nc2ccccc2Cl)n1", "note": "[Compound 37, 2,4-dichloro-6-(2-chloroanilino)-1,3,5-triazine]", "values": [{"measurement": "Protozoal Count", "setting": "rumen protozoa; 2 doses 1 wk apart at 167 mg/kg/dose, week 0, 167 mg/kg", "value": "64,000 number/mL of rumen fluid and 68,500 number/mL of rumen fluid and 94,000 number/mL of rumen fluid"}, {"measurement": "Protozoal Count", "setting": "rumen protozoa; 2 doses 1 wk apart at 167 mg/kg/dose, week 1", "value": "0 number/mL of rumen fluid"}, {"measurement": "Protozoal Count", "setting": "rumen protozoa; 2 doses 1 wk apart at 167 mg/kg/dose, week 2", "value": "0 number/mL of rumen fluid"}, {"measurement": "Protozoal Count", "setting": "rumen protozoa; 2 doses 1 wk apart at 167 mg/kg/dose, week 3", "value": "0 number/mL of rumen fluid"}, {"measurement": "Protozoal Count", "setting": "rumen protozoa; 2 doses 1 wk apart at 167 mg/kg/dose, week 4", "value": "0 number/mL of rumen fluid"}, {"measurement": "Protozoal Count", "setting": "rumen protozoa; 3 doses 1 wk apart at 167 mg/kg per dose, week 0, 167 mg/kg", "value": "259,000 number/mL of rumen fluid and 242,500 number/mL of rumen fluid and 122,500 number/mL of rumen fluid"}, {"measurement": "Protozoal Count", "setting": "rumen protozoa; 3 doses 1 wk apart at 167 mg/kg per dose, week 1", "value": "0 number/mL of rumen fluid"}, {"measurement": "Protozoal Count", "setting": "rumen protozoa; 3 doses 1 wk apart at 167 mg/kg per dose, week 2", "value": "0 number/mL of rumen fluid"}, {"measurement": "Protozoal Count", "setting": "rumen protozoa; 3 doses 1 wk apart at 167 mg/kg per dose, week 3", "value": "0 number/mL of rumen fluid"}, {"measurement": "Protozoal Count", "setting": "rumen protozoa; 3 doses 1 wk apart at 167 mg/kg per dose, week 4", "value": "0 number/mL of rumen fluid"}, {"measurement": "Protozoal Count", "setting": "rumen protozoa; single dose 167 mg/kg, week 0, 167 mg/kg", "value": "151,500 number/mL of rumen fluid and 300,000 number/mL of rumen fluid and 149,500 number/mL of rumen fluid"}, {"measurement": "Protozoal Count", "setting": "rumen protozoa; single dose 167 mg/kg, week 1", "value": "0 number/mL of rumen fluid"}, {"measurement": "Protozoal Count", "setting": "rumen protozoa; single dose 167 mg/kg, week 2, 167 mg/kg", "value": "370,000 number/mL of rumen fluid and 0 number/mL of rumen fluid and 4,500 number/mL of rumen fluid"}, {"measurement": "Protozoal Count", "setting": "rumen protozoa; single dose 167 mg/kg, week 3", "value": "88,800 number/mL of rumen fluid"}, {"measurement": "LD50", "setting": "[5]", "value": "> 4000", "unit": "mg/kg"}, {"measurement": "Elimination of protozoa from cattle (in words)", "setting": "protozoa [1]", "value": "able to eliminate protozoa from cattle"}, {"measurement": "Mean protozoal number", "setting": "protozoa [1]; week 0, 332 mg/kg", "value": 313, "unit": "per mL × 10^3"}, {"measurement": "Mean protozoal number", "setting": "protozoa [1]; week 4, 332 mg/kg", "value": 0, "unit": "per mL × 10^3"}, {"measurement": "Feed Intake", "setting": "Sheep test: feed intake; 1 week after 167 mg/kg", "value": 930, "unit": "g/day"}, {"measurement": "Feed Intake", "setting": "Sheep test: feed intake; 3 weeks after 167 mg/kg", "value": 820, "unit": "g/day"}, {"measurement": "Feed Intake", "setting": "Sheep test: feed intake; pre-dose (baseline)", "value": 1000, "unit": "g/day"}, {"measurement": "Residual protozoal population (in words)", "setting": "protozoa [6]", "value": "one sheep had a residual protozoal population"}, {"measurement": "Protozoal Reduction", "setting": "rumen ciliate protozoa", "value": 100, "unit": "%"}, {"measurement": "ADG, response to defaun.", "setting": "[7]; vs control, p < 0.01", "value": 72, "unit": "%"}, {"measurement": "Carcass dressing out percentage, response to defaun.", "setting": "[7]; vs control, p < 0.01", "value": 16, "unit": "%"}, {"measurement": "Loin eye muscle area, response to defaun.", "setting": "[7]; vs control, p < 0.01", "value": 26, "unit": "%"}, {"measurement": "ADG (average daily gain)", "setting": "[7]; defaunation", "value": 165, "unit": "g/day"}, {"measurement": "Loin eye muscle area", "setting": "[7]; defaunation, 16 weeks, between 12th and 13th rib", "value": 12.5, "unit": "CM^2"}, {"measurement": "Carcass dressing out percentage", "setting": "[7]; defaunation, 16 weeks, cold carcass weight as percentage of liveweight", "value": 44.5, "unit": "%"}, {"measurement": "Protozoal number", "setting": "protozoa [2]", "value": 0, "unit": "per mL × 10^3"}, {"measurement": "Protozoal Nos.", "setting": "protozoa [3]; 1 week after 167 mg/kg", "value": 0, "unit": "per mL × 10^3"}, {"measurement": "Protozoal Nos.", "setting": "protozoa [3]; 3 weeks after 167 mg/kg", "value": 0, "unit": "per mL × 10^3"}, {"measurement": "Protozoal Nos.", "setting": "protozoa [3]; pre-dose (baseline)", "value": 497, "unit": "per mL × 10^3"}, {"measurement": "Rate of liveweight gain (in words)", "setting": "[8]; over controls, P<0.01", "value": "highly significant improvement in the rate of liveweight gain"}, {"measurement": "ADG Increase", "setting": "[8]; relative to control", "value": 65, "unit": "%"}, {"measurement": "ADG", "setting": "[8]; weeks 0-12", "value": 165, "unit": "g/day"}, {"measurement": "Clean Wool Growth", "setting": "[4]; 672 h", "value": 1.773, "unit": "g"}, {"measurement": "Response To Defaun", "setting": "[4]; sheep", "value": 8.9}]}]}
